# Source: patent US20200147060A1, “COMPOSITIONS AND METHODS OF TREATING CANCER” (UNIVERSITY OF IOWA RESEARCH FOUNDATION, priority 2018, published 2020)
# “Also recorded” adds a separate entry of the source. Read-outs that look alike come from different tables or passages of the source.
# Tests used:
# 451 Lu melanoma cells = test: Clonogenic survival assay; type: cell-based; details: ME added to the combination of vem and BSO
# Description: FIGS. 7A-7L. Reduced Thiols Play a Vital Role in Development of Resistance to MAPKi. (A-E) Reduced thiols play a vital role in development of resistance to MAPKi in vitro. Changes in (A) cellular concentration of reduced glutathione (GSH, nmoles/mg protein) (B) cellular concentration of oxidized glutathione (GSSG, nmoles/mg protein) of A375 melanoma cells when treated with buthionine sulfoximine (BSO, 0.5 mM) and 2-mercaptoethanol (ME, 150 μM) in presence of vemurafenib (Vem, 5 μM) (N=3). Difference in clonogenic survival of A375 (N=2, n=3) and 451 Lu (N=1, n=3) melanoma cells when treated with vem alone compared to (C) vem in combination with ME and (D) vem in combination with BSO. (E) Addition of ME to the combination of vem and BSO rescues clonogenic survival in A375 and 451 Lu melanoma cells. […] Spider plots show individual tumor growth rates in A375 tumor bearing mice (N=8) when (F) untreated; (G) treated with BSO (15 mM in drinking water); (H) treated with AIN-76A rodent diet mixed with vemurafenib (PLX4720); (I) combination of AIN-76A rodent diet mixed with vemurafenib (PLX4720) with BSO. (J) Levels of total cellular GSH in tumor tissue obtained from untreated mice and mice treated with BSO. (K) Progression Free Survival (PFS) and (L) Overall survival (OS). ±SEM; *p=0.01 to 0.05, **p=0.001 to 0.01 ****P<0.0001.
# A375 melanoma cells = test: Clonogenic survival assay; type: cell-based, human; details: for development / acquisition of resistance to MAPKi (clonogenic survival): secondary agent combined with MAPKih (Vem 5 μM; Cobi 0.1 μM), PBA 2 mM, HCQ 12 μM
# Description: To determine if the observed MAPKi-induced GSH imbalance plays a causal role in development of resistance, clonogenic survival assays were conducted in which cells were treated with GSH-synthesis inhibitor buthionine sulfoximine (BSO) (0.5 mM) with and without Vem. BSO depletes cellular GSH by inhibiting GSH synthesis via competitive inhibition of gamma-glutamylcysteine synthetase.
# metastatic melanoma = details: cited from earlier work; for progression-free survival (time tumor progression is slowed): melanoma patients, average
# [1] = cited from earlier work; for tolerability in patients: reported clinical trials
# A375-CG-LC3B cells = test: Autophagic flux (mCherry:EGFP ratio) by flow cytometry; type: cell-based, human
# Description: (§1) UPR responses signal the activation of cytoprotective pathways such as autophagy. The role of GSH in mediating the acquisition of resistance was further explored by examining autophagy and autophagic flux responses to MAPKi in A375 metastatic melanoma cells.
# Briefly, A375-CG-LC3B cells were obtained using a retroviral vector containing a coding sequence for a mCherry-EGFP-LC3B tandem protein (pBABE-puro mCherry-EGFP-LC3B, #22418, Addgene). The retrovirus was packaged in GP2-293 cells by co-transfection of 1 μg of viral DNA constructs and 1 μg of envelope plasmid (pVSV-G) in 20 μL PolyFect transfection reagent (Qiagen) for 48 hours at 37° C., 5% CO2. Virus-rich media was collected, aliquoted, and stored at −80° C. Cells were infected using the virus-rich media in DMEM (high glucose) for 12 h followed by incubation in complete media (high-glucose DMEM with 10% FBS) for 24 h. […] Autophagy was quantified as autophagic flux (Af) using A375-CG-LC3B cells.
# Where Fmcherry is mcherry fluorescence measured using the 532 nm laser and FGFP is GFP fluorescence measured using the 488 nm laser on LSR II. […] Samples were analyzed on an LSR II flow cytometer (BD). Af was calculated for live, non-apoptotic (Hoechst negative, Annexin V negative) population using the derived parameter function in Flow Jo software (V10.4). […]
# [2] = system: MAPKi-resistant 451LuBR melanoma xenografts; test: 451LuBR (BRAFi resistant melanoma) xenograft mouse model; type: in vivo, mice
# Description: FIGS. 5A-5F. Pharmacologically Inhibiting Autophagy and ER-stress Simultaneously in Combination with MAPKih Improve Overall Survival in Vivo. Simultaneous inhibition of autophagy and ER-stress with MAPKih (Vem and Vem+Cobi) improves outcome in melanoma tumor bearing mice. (A-D) Simultaneous inhibition of ER-stress using PBA (250 mg kg^−1 twice a day) and autophagic flux using (HCQ 10 mg kg^−1 twice a day) with MAPKih (Vem 16 mg kg^−1 twice a day; Cobi 1 mg kg^−1 once a day) improves outcome in mice bearing MAPKi-sensitive A375 melanoma xenografts (N=13). (A) estimated tumor growth curves in response to PBA and HCQ with Vem; (B) estimated tumor growth curves in response to PBA and HCQ with Vem+Cobi; (C) overall survival in response to PBA and HCQ with Vem; (D) overall survival in response to PBA and HCQ with Vem+Cobi. (E, F) Simultaneous inhibition of ER-stress using PBA (250 mg kg^−1 twice a day) and autophagic flux using (HCQ 6.6 mg kg^−1 twice a day) with MAPKih (Vem 10 mg kg^−1 twice a day) improves outcome in mice bearing MAPKi-resistant 451LuBR melanoma xenografts (N=10); (E) estimated tumor growth curves in response to PBA and HCQ with Vem; and (F) overall survival in response to PBA and HCQ with Vem.
# The potential for simultaneous inhibition of ER-stress and autophagy in overcoming resistance to MAPKih was further explored using a 451LuBR (BRAFi resistant melanoma) cell-line xenograft mouse model treated in the same way. Predictably, administering Vem alone had no effect of tumor growth and overall survival, establishing that these tumors are resistant to BRAFi.
# [3] = system: MAPKi-sensitive A375 melanoma xenografts; test: A375 xenograft bearing mice treated with MAPKih with or without PBA and HCQ; type: in vivo; details: Vem 16 mg/kg twice a day, Cobi 1 mg/kg once a day, PBA 250 mg/kg twice a day i.p., HCQ 10 mg/kg twice a day
# Description: To further explore the potential of simultaneous pharmacological inhibition of ER-stress and autophagy in preventing resistance to MAPKih, A375 xenograft bearing mice (FIGS. 5A-D) were treated with MAPKih or MAPKih in combination with PBA (250 mg kg-1 per dose, twice a day, i.p.) and HCQ (10 mg kg-1 per dose, twice per day, oral gavage). […] The experimental groups included MAPKi by Vem (BRAFih) (16 mg kg-1 per dose, twice a day, oral gavage) alone and in combination with Cobi (MAPKih) (1 mg kg-1 per dose, once a day, oral gavage).
# [4] = system: A375 BRAFV600E mutant melanoma cells; test: Oxygen consumption / extracellular acidification (Seahorse metabolic profiling); type: cell-based, human; details: Vem 5 μM continuous; plateaued within approximately 2 weeks
# Description: (A) The ratio of basal metabolic oxygen consumption (BMOC)/extracellular acidification rate (ECAR) in response to continuous exposure to 5 μM Vem (N=6) as determined by Seahorse metabolic profiling; (B) Measurement of cellular pro-oxidant levels as determined by dyhdroethidium (DHE) oxidation in response to 5 μM Vem (N=3); (C) GSSG:GSH in response to Vem (N=2); (D) total cellular GSH in response to Vem (N=2).
# [5] = system: A375 metastatic melanoma cells; test: Autophagosome area fraction (TEM) and LC3B-II expression; type: cell-based, human
# Description: as §1
# [6] = system: A375 BRAFV600E mutant melanoma cells; test: Glutathione (GSH, GSSG) levels in cells under prolonged MAPKi; type: cell-based, human
# Description: (§2) Initial response rates to MAPKih (BRAFih and BRAFih+MEKih) are often significant (and sometimes remarkable), but melanoma almost invariably (within months) develops resistance to these treatments. It has been further documented that continuous MAPKi brings about changes in cellular metabolism accompanied with a shift in metabolism from glycolysis to oxidative phosphorylation in vitro. Changes were examined in metabolism and oxidative state of A375 BRAFV600E mutant melanoma cells from initiation of BRAFih (Vem, 5 μM) through the acquisition of resistance (approximately 30 days). […] Changes in cellular metabolism coincided with a nearly identical pattern in the cellular redox state of the cell when quantified by the method of DHE oxidation by fluorescence intensity. […] Considering the critical relationship between cellular responses to oxidative stress and the glutathione cellular redox buffer, the changes in glutathione (GSH) levels and the ratio of GSH to the oxidized form (GSH:GSSG) with prolonged MAPKi in the A375 cells treated with Vem (5 μM) were evaluated over the same time period (FIG. 1D).
# [7] = system: A375 BRAFV600E mutant melanoma cells; test: DHE oxidation (cellular redox state) by fluorescence intensity; type: cell-based, human; details: Vem 5 μM; subsided with acquisition of resistance
# Description: as §2
# A375 cells = test: Expression of ER-stress/UPR markers (GRP78/BiP, eIF2α); type: cell-based, human
# Description: The GSH/GSSG ratio is known to be a fundamental buffering parameter of the ER, and ER-stress responses have been implicated in the initiation of autophagy and acquisition of resistance to MAPKih. Thus, the impact of MAPKi-induced GSH imbalance on the expression of ER-stress response proteins was assessed. Changes in UPR markers GRP78 (BiP) and eI2Fa (phospho-eI2Fa to inactivated eI2Fa) were determined by western blot in A375 cells treated with Vem alone and in combination with Cobi (FIGS. 2A-C). […] To explore the role of MAPKi-induced GSH imbalance on activation of UPR, similar time-course experiments were performed to monitor the expression of UPR markers with continuous MAPKi with and without GSH depletion (using BSO). Depletion of the GSH pool using BSO in this way rendered the cells incapable of initiating the ER-stress response and no increase in the expression of GRP78 was seen when A375 cells were treated continuously with Vemurafenib in the presence of BSO (FIG. 2D).
# [8] = Vem 10 mg/kg, PBA 250 mg/kg, HCQ 6.6 mg/kg, each twice a day, compared to control
# [9] = A375 cells, prolonged MAPKi (Vem 5 μM)
smiles,measurement,setting,value
"OCCS [ME, 2-mercaptoethanol]",clonogenic survival on addition of ME to vem and BSO,451 Lu melanoma cells,rescues
same,clonogenic survival on addition of ME to vem and BSO,"A375 melanoma cells; ME 150 μM, BSO 0.5 mM, Vem 5 μM",reversed; also recorded: rescues
"CC(C)(C)c1nc(-c2cccc(NS(=O)(=O)c3c(F)cccc3F)c2F)c(-c2ccnc(N)n2)s1 [dabrafenib, Dabrafenib]",time until resistance occurs,metastatic melanoma; clinical trial data,6 to 7 months
"CCN(CCO)CCCC(C)Nc1ccnc2cc(Cl)ccc12 (stereo not shown) [HCQ, Hydroxychloroquine]",tolerability in patients,[1],well tolerated
same,autophagic flux induced by MAPKi,"A375-CG-LC3B cells; secondary agent (BSO 0.5 mM, PBA 2 mM, HCQ 12 μM) added to MAPKih, versus MAPKih alone",decreased
same,development / acquisition of resistance to MAPKi (clonogenic survival),A375 melanoma cells; BSO 0.5 mM,prevented resistance
same,median / overall survival,[2]; [8],significantly enhanced
same,complete response (complete remissions),[2]; share of mice,20%
"CCCS(=O)(=O)Nc1ccc(F)c(C(=O)c2c[nH]c3ncc(-c4ccc(Cl)cc4)cc23)c1F [Vem, Vemurafenib]",rate of tumor growth,[3],similar
same,ratio of oxygen consumption linked to basal mitochondrial respiration (OCR) and extracellular acidification rate (ECAR),[4],initial increase
same,area fraction of cells covered by autophagosomes (TEM),[5]; Vem 5 μM,significant increase
same,expression of autophagic flux marker LC3B-II,[5]; continuous MAPKi by Vem,significant increases
same,total GSH concentration after adaptation,"[6]; >170 d Vem treatment, versus untreated control cells",re-equilibrated to levels comparable to untreated control cells
same,depletion of glutathione (GSH),[6]; [9],68%
same,increase in oxidized glutathione (GSSG),[6]; [9],30 fold
same,oxidation of DHE,[7],initial increase
same,autophagic flux,A375-CG-LC3B cells; continuous MAPKi (Vem 5 μM; Cobi 0.1 μM) versus untreated cells,increased
same,median / overall survival,[2]; [8],no effect
same,tumor growth rate,[2]; [8],no effect
same,progression-free survival (time tumor progression is slowed),metastatic melanoma; listed as Vemurafenib,about 7.2 months
same,progression-free survival (time tumor progression is slowed),metastatic melanoma; listed as vemurafenib,7.2 months
same,expression of ER-stress markers,"A375 cells; continuous MAPKi, later decrease to pre-treatment levels",gradual increase
"CCCCS(=N)(=O)CCC(N)C(=O)O [BSO, L-buthionine-[S,R]-sulfoximine]",tolerability in patients,[1],well-tolerated
same,clonogenic survival,"A375 melanoma cells; BSO 0.5 mM alone, without MAPKih",did not affect
same,development / acquisition of resistance to MAPKi (clonogenic survival),A375 melanoma cells; BSO 0.5 mM,completely inhibits acquisition of resistance; also recorded: prevents acquisition of resistance
same,expression of GRP78 (BiP),A375 cells; continuous Vem in the presence of BSO 0.5 mM,diminished
"O=C(O)CCCc1ccccc1 [PBA, phenylbutyric acid]",tolerated dose,[1]; patients suffering from urea cycle disorders,up to 27 g per day
same,tolerability in patients,[1],safely administered
